# Several values for one entry are separate records, joined by “and”; a condition that tells them apart may be missing. Equal values may be shown once. Activity calls are given as the source filed them. No rule for the calls is given here.
# Target: glucose-6-phosphate dehydrogenase-6-phosphogluconolactonase (Plasmodium falciparum 3D7)
# Assay: inhibition of P. falciparum G6PD activity – biochemical, kinetic NADPH detection, orthogonal assay, SAR follow-up (AID 588593)
# Conditions: recombinant PfG6PD-6PGL
row,IC50,SMILES
1,9.49 µM,CCN1CCC[C@H]1CNC(=O)c1ccc2c(c1)NC(=O)/C(=C/c1ccccc1F)S2
2,> 80 µM (inactive),O=C(NCCN1CCOCC1)c1ccc2c(c1)NC(=O)c1ccccc1O2
3,10.7 µM,Cc1ccc(C(=O)Nc2nnc(S(=O)(=O)N3CCCCCC3)s2)cc1
4,> 80 µM (inactive),CN(C)CCNC(=O)c1ccc2c(c1)NC(=O)CO2
5,47.2 µM,COc1ccc(C(=O)Nc2nnc(S(=O)(=O)N3CCCCCC3)s2)cc1
6,45.9 µM,CCCN(CCC)CCNC(=O)c1ccc2c(c1)NC(=O)/C(=C\c1ccc(C)cc1)S2
7,> 80 µM (inactive),CCN1CCCC1CNC(=O)c1ccc2c(c1)N(Cc1ccccc1F)C(=O)c1ccccc1S2 (configuration not stated)
8,9.09 µM,Cc1cccc(C(=O)Nc2nnc(S(=O)(=O)N3CCC(C)CC3)s2)c1
9,> 80 µM (inactive),O=C1Nc2cc(C(=O)NCc3ccccc3)ccc2S/C1=C\c1ccccc1F
10,62.3 µM,CCN(CC)CCNC(=O)c1ccc2c(c1)NC(=O)c1ccccc1O2
11,31.6 µM,O=C(NCCN1CCCCC1)c1ccc2c(c1)NC(=O)c1ccccc1O2
12,> 80 µM (inactive),Cc1cccc(C(=O)Nc2nnc(S(=O)(=O)N3CCCc4ccccc43)s2)c1
13,> 80 µM (inactive),O=C1Nc2cc(C(=O)NCCN3CCOCC3)ccc2S/C1=C\c1ccccc1F
14,28.6 µM,CN(CCNC(=O)c1ccc2c(c1)NC(=O)c1ccccc1S2)C1CCCCC1
15,47.9 µM,Cc1cccc(N2CCN(CCNC(=O)c3ccc4c(c3)NC(=O)c3ccccc3S4)CC2)c1C
16,54.6 µM,Cc1ccc(C(=O)Nc2nnc(S(=O)(=O)N3CCCc4ccccc43)s2)cc1
17,18.1 µM,O=C(Nc1nnc(S(=O)(=O)N2CCCCCC2)s1)c1cccc(F)c1
18,15.9 µM,O=C(Nc1nnc(S(=O)(=O)N2CCCc3ccccc32)s1)c1cccc(F)c1
19,> 80 µM (inactive),Cc1cccc(C(=O)Nc2nnc(S(=O)(=O)N3c4ccccc4CC3C)s2)c1 (configuration not stated)
20,30.8 µM,CC1Cc2ccccc2N1S(=O)(=O)c1nnc(NC(=O)c2cccc(F)c2)s1 (configuration not stated)
21,45.2 µM,CN1CCCC1CCNC(=O)c1ccc2c(c1)NC(=O)/C(=C/c1ccccc1F)S2 (configuration not stated)
22,77 µM,O=C1COc2ccc(C(=O)NCCN3CCCCC3)cc2N1

row,IC50,SMILES
1,> 80 µM (inactive),O=C1Nc2cc(C(=O)NCCN3CCCCCC3)ccc2S/C1=C/c1ccccc1Cl
2,> 80 µM (inactive),COc1ccc(/C=C2/Sc3ccc(C(=O)NCCN4CCCCCC4)cc3NC2=O)cc1
3,> 80 µM (inactive),O=C1COc2ccc(C(=O)NCCN3CCCC3)cc2N1
4,34 µM,O=C(Nc1nnc(S(=O)(=O)N2CCCCC2)s1)c1cccc(F)c1
5,27.2 µM,CCCN(CCC)CCNC(=O)c1ccc2c(c1)NC(=O)/C(=C/c1ccccc1)S2
6,11 µM,O=C1Nc2cc(C(=O)NCCN3CCCCCC3)ccc2S/C1=C/c1ccccc1F
7,46.9 µM,Cc1ccccc1C(=O)Nc1nnc(S(=O)(=O)N2CCCc3ccccc32)s1
8,> 80 µM (inactive),CCN(CC)CCNC(=O)c1ccc2c(c1)NC(=O)CO2
9,24 µM,O=C1Nc2cc(C(=O)NCCN3CCCCC3)ccc2S/C1=C\c1ccccc1F
10,3.17 µM,CCN1CCCC1CNC(=O)c1ccc2c(c1)NC(=O)/C(=C\c1ccccc1F)S2 (configuration not stated)
11,> 80 µM (inactive),Cc1ccc(C(=O)Nc2nnc(S(=O)(=O)N3c4ccccc4CC3C)s2)cc1 (configuration not stated)
12,35.2 µM,O=C(Nc1nnc(S(=O)(=O)N2CCCCCC2)s1)c1ccccc1F
13,9.37 µM,CCN(CC)CCNC(=O)c1ccc2c(c1)NC(=O)/C(=C\c1ccccc1F)S2
14,8.77 µM,Cc1cccc(/C=C2/Sc3ccc(C(=O)NCCN4CCCC4)cc3NC2=O)c1
15,5.79 µM,Cc1cccc(C(=O)Nc2nnc(S(=O)(=O)N3CCCCCC3)s2)c1
16,11.9 µM,CCN1CCCC1CNC(=O)c1ccc2c(c1)NC(=O)c1ccccc1O2 (configuration not stated)
17,8.01 µM and 6.42 µM,CCN1CCCC1CNC(=O)c1ccc2c(c1)NC(=O)c1ccccc1S2 (configuration not stated)
18,51.9 µM,O=C(Nc1nnc(S(=O)(=O)N2CCOCC2)s1)c1cccc(F)c1
19,44.9 µM,CCN(CC)CCNC(=O)c1ccc2c(c1)NC(=O)/C(=C\c1ccccc1Cl)S2
20,> 80 µM (inactive),CCN1CCCC1CNC(=O)c1ccc2c(c1)N(Cc1ccccc1Cl)C(=O)c1ccccc1S2 (configuration not stated)
21,> 80 µM (inactive),CCN(CC)CCNC(=O)c1ccc2c(c1)N(Cc1ccc(C)cc1)C(=O)c1ccccc1S2
22,18.4 µM,CCN(CC)CCNC(=O)c1ccc2c(c1)NC(=O)/C(=C/c1ccccc1)S2

row,IC50,SMILES
1,> 80 µM (inactive),COc1ccc(/C=C2/Sc3ccc(C(=O)NCCN(C)C)cc3NC2=O)cc1
2,24.2 µM,Cc1cccc(C(=O)Nc2nnc(S(=O)(=O)N3CCOCC3)s2)c1
3,13.3 µM,O=C(Nc1nnc(S(=O)(=O)N2CCCCCC2)s1)c1ccccc1
4,> 80 µM (inactive),CCN(CCNC(=O)c1ccc2c(c1)NC(=O)c1ccccc1S2)c1ccccc1
5,> 80 µM (inactive),CC1Cc2ccccc2N1S(=O)(=O)c1nnc(NC(=O)c2cccc(Br)c2)s1 (configuration not stated)
6,44.6 µM,CCN(CCNC(=O)c1ccc2c(c1)N(CC)C(=O)c1ccccc1S2)c1ccccc1
7,35.3 µM,COc1cccc(/C=C2/Sc3ccc(C(=O)NCCN4CCCC4)cc3NC2=O)c1
8,> 80 µM (inactive),CCN1CCCC1CNC(=O)c1ccc2c(c1)N(Cc1ccc(C(F)(F)F)cc1)C(=O)c1ccccc1S2 (configuration not stated)
9,30.8 µM,CCN1CCC[C@@H]1CNC(=O)c1ccc2c(c1)NC(=O)/C(=C/c1ccccc1F)S2
10,5.01 µM,CCN1CCCC1CNC(=O)c1ccc2c(c1)NC(=O)/C(=C/c1ccccc1C)S2 (configuration not stated)
11,4.02 µM,CCC(C)N(CCNC(=O)c1ccc2c(c1)NC(=O)c1ccccc1S2)C1CCCCC1 (configuration not stated)
12,11.6 µM,Cc1ccccc1C(=O)Nc1nnc(S(=O)(=O)N2CCCCCC2)s1
13,41.4 µM,CCN1CCCC1CNC(=O)c1ccc2c(c1)NC(=O)CO2 (configuration not stated)
14,10 µM,COc1ccccc1C(=O)Nc1nnc(S(=O)(=O)N2CCCCCC2)s1
15,38.5 µM,O=C(Nc1nnc(S(=O)(=O)N2CCCCCC2)s1)C1CCCCC1
16,43.6 µM,CN(C)CCNC(=O)c1ccc2c(c1)NC(=O)/C(=C\c1cccc(Cl)c1)S2
17,23.8 µM,CCOc1ccc(C(=O)Nc2nnc(S(=O)(=O)N3CCCCCC3)s2)cc1
18,4.2 µM,CCN1CCCC1CNC(=O)c1ccc2c(c1)NC(=O)/C(=C/c1cccc3ccccc13)S2 (configuration not stated)
19,11.3 µM,CCN1CCCC1CNC(=O)c1ccc2c(c1)NC(=O)/C(=C/c1ccccc1OC)S2 (configuration not stated)
20,> 80 µM (inactive),CN(C)CCNC(=O)c1ccc2c(c1)NC(=O)c1ccccc1O2
21,20.3 µM,O=C(Nc1nnc(S(=O)(=O)N2CCCCCC2)s1)c1cccc(Cl)c1
22,> 80 µM (inactive),CCN(CC)CCNC(=O)c1ccc2c(c1)N(Cc1ccccc1Cl)C(=O)c1ccccc1S2

row,IC50,SMILES
1,> 80 µM (inactive),COc1ccc(/C=C2/Sc3ccc(C(=O)NCCN4CCCC4)cc3NC2=O)cc1
2,> 80 µM (inactive),CCN(CC)CCNC(=O)c1ccc2c(c1)N(Cc1cc(C)ccc1C)C(=O)c1ccccc1S2
3,58.5 µM,COc1cccc(/C=C2/Sc3ccc(C(=O)NCCN4CCCCCC4)cc3NC2=O)c1
4,12.5 µM,CCN(CC)CCNC(=O)c1ccc2c(c1)NC(=O)/C(=C\c1ccc(OC)cc1)S2
5,43.9 µM,O=C(Nc1nnc(S(=O)(=O)N2CCCCCC2)s1)c1ccc(F)cc1
6,> 80 µM (inactive),Cc1ccc(CN2C(=O)c3ccccc3Sc3ccc(C(=O)NCCN(C)C)cc32)cc1
7,48.2 µM,CCN(CCNC(=O)c1ccc2c(c1)N(Cc1cc(C)ccc1C)C(=O)c1ccccc1S2)c1ccccc1
8,3.32 µM,CCN1CCCC1CNC(=O)c1ccc2c(c1)NC(=O)/C(=C\c1ccccc1Cl)S2 (configuration not stated)
9,24.5 µM,CCN(CC)CCNC(=O)c1ccc2c(c1)NC(=O)/C(=C\c1ccc(OC)c(OC)c1)S2
10,> 80 µM (inactive),CCN1CCCC1CNC(=O)c1ccc2c(c1)N(Cc1cccc(F)c1)C(=O)c1ccccc1S2 (configuration not stated)
11,31.6 µM,COc1cccc(C(=O)Nc2nnc(S(=O)(=O)N3CCCCCC3)s2)c1
12,33.3 µM,O=C(Nc1nnc(S(=O)(=O)N2CCCCCC2)s1)c1ccco1
13,> 80 µM (inactive),CCN1CCCC1CNC(=O)c1ccc2c(c1)NC(=O)CS2 (configuration not stated)
14,> 80 µM (inactive),CN1CCN(C(=O)c2ccc3c(c2)NC(=O)/C(=C/c2ccccc2Cl)S3)CC1
15,> 80 µM (inactive),O=C1Nc2cc(C(=O)NCCN3CCCC3)ccc2S/C1=C/c1ccccc1Cl
16,41.8 µM and 57.4 µM,CCN(CC)CCNC(=O)c1ccc2c(c1)NC(=O)c1ccccc1S2
17,35.6 µM,O=C(NCCN1CCCC1)c1ccc2c(c1)NC(=O)c1ccccc1O2
18,7.09 µM,O=C(Nc1nnc(S(=O)(=O)N2CCCCCC2)s1)c1cccc(Br)c1
19,> 80 µM (inactive),O=C1COc2ccc(C(=O)NCCN3CCOCC3)cc2N1
20,5.48 µM,COc1ccc(C(=O)Nc2nnc(S(=O)(=O)N3CCCCCC3)s2)cc1OC
21,60.5 µM,O=C(NCCN1CCCC1)c1ccc2c(c1)NC(=O)c1ccccc1S2

# Reference: PubChem BioAssay AID588593 (Sanford-Burnham Center for Chemical Genomics, 2011)
